Measured values published in PubChem BioAssay (NCI).
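Interpolation was linear, between the two tested concentrations surrounding the appropriate level; five concentrations were tested over 48 hours in 96-well plates. Here, GI50 denotes the concentration required for 50% inhibition of growth. TGI: concentration producing complete growth inhibition.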

How the values were obtained:
Assay in all cases: inhibition of tumour cell growth, NCI panel, 48 h
NCI/ADR-RES ovarian = tested on: NCI/ADR-RES ovarian
786-0 renal = tested on: 786-0 renal
SNB-19 CNS = tested on: SNB-19 CNS
A549 NSCLC = tested on: A549 NSCLC
SK-MEL-2 melanoma = tested on: SK-MEL-2 melanoma
NCI-H460 lung = tested on: NCI-H460 lung
MALME-3M melanoma = tested on: MALME-3M melanoma
SF-539 CNS = tested on: SF-539 CNS
SK-MEL-28 melanoma = tested on: SK-MEL-28 melanoma
OVCAR-4 ovarian = tested on: OVCAR-4 ovarian

SMILES | TGI (NCI/ADR-RES ovarian) [µM] | TGI (786-0 renal) [µM] | TGI (SNB-19 CNS) [µM] | TGI (A549 NSCLC) [µM] | TGI (SK-MEL-2 melanoma) [µM] | TGI (NCI-H460 lung) [µM] | TGI (MALME-3M melanoma) [µM] | TGI (SF-539 CNS) [µM] | TGI (SK-MEL-28 melanoma) [µM] | GI50 (NCI/ADR-RES ovarian) [µM] | GI50 (786-0 renal) [µM] | GI50 (SNB-19 CNS) [µM] | GI50 (A549 NSCLC) [µM] | GI50 (SK-MEL-2 melanoma) [µM] | GI50 (OVCAR-4 ovarian) [µM] | TGI (OVCAR-4 ovarian) [µM] | GI50 (NCI-H460 lung) [µM] | GI50 (MALME-3M melanoma) [µM] | GI50 (SF-539 CNS) [µM] | GI50 (SK-MEL-28 melanoma) [µM]
CC1(C)OC2C(CO)OC(n3ccc(N)nc3=O)C2O1 (centres undefined) | > 100 | > 100 | > 100 | > 100 | > 100 | > 100 | > 100 | > 100 | > 100 | – | – | – | – | – | – | – | – | – | – | –
CCOC(=O)[C@@H](C)C[C@H](Cc1ccccc1)NC(=O)c1csc([C@@H](C[C@H](C(C)C)N(C)C(=O)[C@@H](NC(=O)[C@H]2C[C@H](O)CCN2C)C(C)C)OC(C)=O)n1 | > 16.7 | > 16.7 | > 16.7 | > 16.7 | > 16.7 | > 16.7 | > 16.7 | 0.0157 | – | 2.67 | 0.0273 | 0.00312 | 0.0356 | 0.00243 | 0.0259 | > 16.7 | 0.0063 | 0.00208 | 0.00452 | –
C=C1c2[nH]c3ccccc3c2CC(C(=O)O)N1C(O)c1ccc(S(=O)(=O)O)cc1 (centres undefined) | – | > 100 | > 100 | > 100 | > 100 | > 100 | > 100 | > 100 | > 100 | – | – | – | – | – | – | > 100 | – | – | – | –
Cc1ccc(NC(=O)c2nc(S(C)(=O)=O)oc2-c2ccc(F)cc2)cc1Nc1ccc2ncn(C)c(=O)c2c1 | 15.7 | 3.55 | 9.86 | 29.5 | 3.29 | 10.9 | – | 3.14 | 3.4 | 3.14 | 2 | 3.46 | 13.9 | 1.59 | – | – | 3.26 | – | 1.65 | 1.74
CCc1nc2ccccc2c(=O)n1/N=C(\N=Nc1ccc(Cl)cc1)c1ccccc1 | – | 59.2 | 82.6 | 98.7 | 82.5 | > 100 | 90 | 51.8 | > 100 | – | – | – | – | – | – | 75.6 | – | – | – | –
O=C1NC(=O)C2C1C1C=C3c4ccccc4N(c4ccccc4)C32[C@H]2C(=O)NC(=O)[C@@H]12 (some centres undefined) | – | > 100 | > 100 | > 100 | > 100 | > 100 | > 100 | > 100 | > 100 | – | – | – | – | – | – | > 100 | – | – | – | –
C#CCn1c(=O)c2cccnc2n(CC#C)c1=O | – | > 100 | > 100 | > 100 | > 100 | > 100 | > 100 | – | > 100 | – | – | – | – | – | – | > 100 | – | – | – | –
COC1=CC(=O)OC(/C=C(C)/C=C/C2=C(C)CCCC2(C)C)C1 (centres undefined) | – | > 100 | > 100 | > 100 | > 100 | > 100 | > 100 | > 100 | > 100 | – | – | – | – | – | – | > 100 | – | – | – | –
COC(=O)c1nc(C(=O)OC)c2c([nH]c3ccccc32)c1C(=O)OC | – | > 100 | – | > 100 | > 100 | > 100 | > 100 | > 100 | > 100 | – | – | – | – | – | – | – | – | – | – | –
